Measurements: patent US20050084490A1, “Boroproline compound combination therapy” (Point Therapeutics, Inc., priority 2002, published 2005)

Key:
[1] = tested on: cytokine and chemokine genes; experiment: Cytokine and chemokine gene expression (Affymetrix GeneChips) in lymph nodes and WEHI 164 tumors; assay type: in vivo, mice; conditions: 5 μg twice daily
Experimental: (§1) Mice were inoculated with WEHI 164 cells, and starting 2 days later, administered (twice daily) a 5 μg dose of PT-100 or saline (control). RNA extracted from lymph nodes and tumors 2 hours after the first dose of PT-100 on day 4 after tumor inoculation was processed, labeled and hybridized to Affymetrix GeneChips according to the manufacturer's instructions. The log ratio of expression values (PT-100 treated:saline treatment) has been plotted on the ordinates for the cytokine and chemokine genes indicated on the abscissae. Zero values indicate that gene expression was either undetectable or unaffected by PT-100 treatment.
as §1, with “tumors 30 minutes or” for “tumors”, “ratios for” for “ratio of”, “have” for “has”, “cytokine” for “cytokine and chemokine”, “treatment. […]” for “treatment.”

[2] = tested on: WEHI 164 tumor cells; experiment: WEHI 164 tumor growth and rejection in euthymic and athymic BALB/c mice; assay type: in vivo; conditions: 5 μg dose; for tumor growth (tumor volume): day 2 until day 20 after tumor inoculation
Experimental: Normal euthymic BALB/c mice (+/+) or athymic BALB/c mice that are congenitally deficient in mature T lymphocytes (nu/nu) were inoculated with WEHI 164 tumor cells. The mice were administered a 5 μg dose of PT-100 or saline (control) from day 2 until day 20 after tumor inoculation and tumor volumes ([…]) were measured at the times indicated on the ordinate. Each treatment group contained 10 replicate mice. […] In euthymic mice, however, tumors were completely rejected by day 20 in 40 per cent of the mice treated with PT-100 whereas tumor rejection was not observed in PT-100 treated athymic mice. In the WEHI 164 tumor model, tumor rejection never occurred spontaneously in control mice. […] The data are consistent with a mechanism of action involving increased production of cytokines and chemokines in mice treated with PT-100 as described in Example 1.

[3] = tested on: Namalwa cells; experiment: NOD/SCID mouse model of Burkitt's Non-Hodgkin's Lymphoma; assay type: in vivo, NOD/SCID mice; conditions: Namalwa subcutaneous tumors; PT-100 5 μg twice daily day 2 to 20; antibody or normal human IgG 1.5 mg on days 3, 5 and 7
Experimental: Immunodeficient NOD/SCID mice were inoculated with Namalwa cells derived from a Burkitt's NHL. The human lymphoma cells proliferated in the immunodeficient mice to form solid subcutaneous tumors. Mice were administered 1.5 mg of normal human lgG or 1.5 mg of a human CD20-specific antibody (Rituxan) on each of days 3, 5 and 7 after tumor inoculation. Additional treatments with 5 μg PT-100 administered twice daily from day 2 until day 20 after tumor inoculation were given as indicated in the Figure Legend. The four treatment groups each contained 4 or 5 replicate mice. The data represent mean tumor volumes (±SE). Control treatment with normal human IgG had no effect on tumor growth as compared with saline treatment (data not shown). […] The data support the concept that when combined together, PT-100 and a tumor-specific antibody can have a greater growth inhibitory effect against a tumor than either treatment by itself.

[4] = tested on: IL-1β, G-CSF and KC; experiment: ELISA of IL-1β, G-CSF and KC in serum and spleen extracts of BALB/c mice; assay type: in vivo; conditions: 20 μg oral, 8 hours after administration
Experimental: BALB/c mice were orally administered 20 μg PT-100 or saline as indicated on the abscissae. Eight hours after PT-100 administration, IL-1β, G-CSF and KC levels were determined by ELISA (R&D Systems) of serum and extracts of spleens. Cytokine and chemokine levels are indicated on the ordinate as pg/ml or ng/ml of serum, and as pg/mg or ng/mg of protein in each spleen extract as determined by BCA protein assays (Pierce).

[5] = tested on: IL-1β, G-CSF and KC; experiment: ELISA of IL-1β, G-CSF and KC in serum and spleen extracts of B6 and IL-1 receptor-1 mutant mice; assay type: in vivo; conditions: 40 or 160 μg oral, 8 hours
Experimental: Normal B6 mice (+/+) and congenic B6.129S7-Illr1^tmllmx mice with a targeted mutation of the IL-1 receptor-1 (−/−) were orally administered 40 or 160 μg of PT-100 or saline as indicated on the abscissae. 8-hours after PT-100 administration, IL-1β, G-CSF and KC levels were determined by ELISA of serum and extracts of spleen. Cytokine and chemokine levels are indicated on the ordinate as pg/ml or ng/ml of serum, and as pg/mg or ng/mg of protein in each spleen extract as determined by BCA protein assays.

[6] = IL-1 receptor-1 mutant (−/−) mice

## CC(C)[C@H](N)C(=O)N1CCC[C@H]1B(O)O [PT-100, Val-boroPro]
[1]; WEHI 164 tumor mice, 2 hours after first dose on day 4 after tumor inoculation
  cytokine and chemokine gene expression in tumor and draining inguinal lymph nodes: selective induction of cytokine and chemokine gene expression
[1]; oral, 30 minutes vs 2 hours after first dose on day 4, inguinal lymph nodes draining WEHI 164 tumors
  IL-1β mRNA levels in lymph nodes: increase in lymph nodes before those of other cytokines
[2]; athymic BALB/c (nu/nu) mice
  tumor growth (tumor volume): significantly inhibited tumor growth
[2]; athymic BALB/c mice, day 2 until day 20
  tumor rejection: not observed
[2]; euthymic BALB/c mice, day 2 until day 20
  mice with tumors completely rejected by day 20: 40 per cent of the mice
[2]; normal euthymic BALB/c (+/+) mice
  tumor growth (tumor volume): significantly inhibited tumor growth
[3]
  tumor growth (mean tumor volume): significantly (p<0.05) inhibited tumor growth
[4]; serum
  G-CSF levels in serum: increased in both spleen and serum
  IL-1β serum levels: without increasing serum levels
  KC levels in serum: increased in both spleen and serum
[4]; spleen extract
  G-CSF levels in spleen: increased in both spleen and serum
  IL-1β levels in spleen tissue: increases IL-1β levels in spleen tissue
  KC levels in spleen: increased in both spleen and serum
[5]; IL-1 receptor-1 mutant (−/−) mice compared to normal B6 mice
  IL-1β levels in the spleen: could still increase IL-1β levels in the spleen; but the magnitude of the response was greatly reduced
[5]; [6]
  serum G-CSF levels: essentially unaffected
  serum KC levels: essentially unaffected
  splenic G-CSF levels: essentially unaffected
  splenic KC levels: essentially unaffected

## Rituxan: human CD20-specific antibody (anti-CD20 mAb rituximab) [reference compound]
[3]
  tumor growth (mean tumor volume): significantly (p<0.05) inhibited tumor growth
